Reference: patent US11524966B1 (Valo Early Discovery, Inc., priority 2017, dated 2022)

Biological target: T1, USP28 (USP28-5(1-1077)-TEV-6*His; LifeSensors) (Homo sapiens, UniProt Q96RU2)
T1 construct: construct USP28 (USP28-5(1-1077)-TEV-6*His; LifeSensors); TEV cleavage site (C); 6xHis (C); purchased LifeSensors
T1 sequence (Q96RU2 1-1077): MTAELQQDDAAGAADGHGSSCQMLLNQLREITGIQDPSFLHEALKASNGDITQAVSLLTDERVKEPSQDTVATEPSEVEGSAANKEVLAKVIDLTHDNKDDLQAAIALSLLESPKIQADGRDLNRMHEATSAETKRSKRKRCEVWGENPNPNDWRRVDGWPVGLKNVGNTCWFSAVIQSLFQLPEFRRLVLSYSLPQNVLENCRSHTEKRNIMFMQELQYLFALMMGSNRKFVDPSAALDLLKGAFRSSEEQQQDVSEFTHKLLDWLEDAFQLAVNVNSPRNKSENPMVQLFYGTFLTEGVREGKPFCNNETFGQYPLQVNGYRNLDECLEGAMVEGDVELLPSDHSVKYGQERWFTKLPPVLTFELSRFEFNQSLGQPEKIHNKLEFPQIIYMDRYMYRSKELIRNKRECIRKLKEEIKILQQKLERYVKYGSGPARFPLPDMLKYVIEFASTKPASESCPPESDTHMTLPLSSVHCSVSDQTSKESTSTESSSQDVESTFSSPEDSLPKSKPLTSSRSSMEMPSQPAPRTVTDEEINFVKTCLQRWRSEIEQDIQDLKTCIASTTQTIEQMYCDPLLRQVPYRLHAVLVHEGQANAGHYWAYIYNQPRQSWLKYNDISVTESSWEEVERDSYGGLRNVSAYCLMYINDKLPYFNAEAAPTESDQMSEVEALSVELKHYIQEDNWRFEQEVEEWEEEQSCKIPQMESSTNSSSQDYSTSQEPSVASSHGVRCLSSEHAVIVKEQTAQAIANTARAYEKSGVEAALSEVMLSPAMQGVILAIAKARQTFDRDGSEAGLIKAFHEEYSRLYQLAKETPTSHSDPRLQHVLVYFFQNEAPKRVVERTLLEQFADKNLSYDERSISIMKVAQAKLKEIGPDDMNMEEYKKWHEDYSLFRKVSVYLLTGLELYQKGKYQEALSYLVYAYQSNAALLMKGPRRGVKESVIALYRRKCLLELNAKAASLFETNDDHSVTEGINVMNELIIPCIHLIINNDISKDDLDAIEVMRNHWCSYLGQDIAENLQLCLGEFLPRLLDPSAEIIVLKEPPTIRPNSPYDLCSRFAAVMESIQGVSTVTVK
Assay: Ubiquitin-Rhodamine 110 Assay for USP28 Activity, Example A-1(b)
Type: biochemical
Conditions: Ubiquitin-Rhodamine 110 assay, Example A-1(b)
Method in brief: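 Single-point screening used 10 μM compound with 90 min room-temperature incubation; follow-up dose-responses (25 μM top, 3-fold) used 75 pM USP28 1-1077 construct, 30 min compound preincubation, 25 nM Ub-Rh110, 20 min reaction, citric acid quench. Rh110 fluorescence normalised to no-enzyme and DMSO controls; IC50 from 4-parameter logistic fit.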

With `Cc1ccc2c(N)c(C(=O)N[C@H]3COc4cc(N5CCNCC5)cc(F)c4C3)oc2n1` [Example 169, 3-amino-N-[(3R)-5-fluoro-7-(piperazin-1-yl)-3,4-dihydro-2H-1-benzopyran-3-yl]-6-methylfuro[2,3-b]pyridine-2-carboxamide] the “USP28 A-1(b) IC50 range” value was “+ (>2 μM)”.
